For 59 compounds, RP-LC retention time results are on record in the METLIN SMRT retention time set (Domingo-Almenara et al. 2019).

A short description of this data set: gradient 5% acetonitrile 3 min, to 50% in 2 min, to 85% in 15 min, held 3 min, 100 µL/min. The note with it: column: Zorbax Extend-C18 2.1 x 50 mm; eluents: water / acetonitrile, 0.1% formic acid. Put shortly:
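The system's dead and dwell volumes were 40 μL and 900 μL, with a Zorbax Extend-C18 column (2.1 × 50 mm, 1.8 μm) run at 100 μL/min in water and acetonitrile containing 0.1% formic acid each. Pure standards were analyzed in mixtures of ~100 molecules by HPLC–quadrupole time-of-flight mass spectrometry in positive and negative ionization mode. Retention time was assigned from computationally picked, manually inspected adduct peaks.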
`O=C(Nc1nc(-c2ccccc2)c(-c2ccccc2)s1)c1ccc(Br)s1`: the RP-LC retention time was 1460 s.

Take `Cc1cccc(-c2noc(Cn3c(=O)n(Cc4ccco4)c(=O)c4ccccc43)n2)c1`: the RP-LC retention time was 1090 s.

For the compound `N#Cc1ccc(C(=O)N2CCCC2c2nc(-c3ccccc3)n[nH]2)cc1` (centres undefined), the RP-LC retention time amounted to 696 s.

`Cc1ccn2cc(-c3ccc(NS(=O)(=O)c4ccc(C)c([N+](=O)[O-])c4)cc3)nc2n1` gave an RP-LC retention time of 685 s.

Compound `CC(C)Oc1ccccc1CN1CCC2(CC1)CN(C)CC2c1nnc(C(C)C)o1` (centres undefined) gave an RP-LC retention time of 569 s.

`COc1ccc(NC(=O)N2CCC(n3cnc4cccnc43)CC2)c(OC)c1` registered an RP-LC retention time of 633 s.

Compound `COc1cc(NC(=O)N2C[C@@H](F)C[C@H]2C(=O)N2CCc3ccccc3C2)cc(OC)c1` gave an RP-LC retention time of 752 s.

In turn, `CCn1cc(-c2nc(CC(=O)NCc3ccc(F)cc3)cs2)c2cccnc21` gave an RP-LC retention time of 865 s.

For `CC(=O)N1CCc2cc(N3CC(C(=O)NC4CCCCCC4)CC3=O)ccc21` (centres undefined), the RP-LC retention time was determined as 723 s.

The compound `O=C(NCCc1csc(-c2ccccc2)n1)C1CCN(C(=O)c2ccco2)CC1` yielded an RP-LC retention time of 749 s.

With `O=C(Cn1nc(N2CCOCC2)c2ccccc2c1=O)Nc1ccc(Cl)cc1F`, the RP-LC retention time was 866 s.

Consider `CCn1nc(N2CCCC(NC(=O)Cn3c(=O)oc4ccccc43)C2)ccc1=O` (centres undefined), for which the RP-LC retention time worked out at 707 s.

`CCCNc1cc(N2CCC(CCC(=O)NC3CCN(Cc4ccccc4)CC3)CC2)ncn1` had an RP-LC retention time of 572 s.

`CC(C)NC(=O)C1CCN(c2cncnc2N(C)C)CC1` gave an RP-LC retention time of 580 s.

For the compound `Cc1nn2c(CNS(=O)(=O)c3ccc(F)c(Cl)c3)c(-c3ccccc3)nc2s1`, the RP-LC retention time stood at 942 s.

Take `Cc1c(Cl)cccc1NC(=O)CCc1ccc2nc[nH]c2c1`: the RP-LC retention time was found to be 614 s.

On to `Cc1c(Cl)cccc1NC(=O)C1CCN(S(=O)(=O)c2ccc3c(c2)NC(=O)CO3)CC1`, for which the RP-LC retention time stood at 778 s.

`CC(C)Oc1cc(O)c2c(=O)cc(-c3ccccc3)oc2c1` gave an RP-LC retention time of 1260 s.

The compound `CCn1cnc(S(=O)(=O)N2CCCC(C(=O)NCCCc3ccccc3)C2)c1` (centres undefined) returned an RP-LC retention time of 769 s.

The compound `COC(=O)[C@H](CCCN=C(N)N)NS(=O)(=O)c1ccc(C)cc1` showed an RP-LC retention time of 667 s.

On to `CC(C)NC(=O)Cn1cccc(-c2nc(-c3ccc(Cl)cc3)no2)c1=O`, for which the RP-LC retention time was 807 s.

As for `CCCC(=O)NCCc1c(I)[nH]c2ccc(OC)cc12`, the RP-LC retention time was 849 s.

Take `CSc1ccc(CNC(=O)C2CCCN(C(=O)c3cc(C)cc(C)c3)C2)cc1` (centres undefined): the RP-LC retention time stood at 921 s.

In the case of `CCCn1c(=O)sc2cc(S(=O)(=O)N3CCC(C(=O)Nc4ccccn4)CC3)ccc21`, the RP-LC retention time worked out at 780 s.

For `CCNc1cc(N2CCC(CCC(=O)Nc3ccc(C)cc3C)CC2)ncn1`, the RP-LC retention time amounted to 686 s.

With `C[C@H]1CN(C(=O)Nc2ccc(F)cc2)C[C@@H]1c1nc(-c2cccnc2)no1`, the RP-LC retention time amounted to 760 s.

Take `O=C(NC(Cc1ccccc1)c1nnc(N2CCCC2)o1)c1ccco1` (centres undefined): the RP-LC retention time worked out at 713 s.

For the compound `CCn1nccc1-c1cccc(-c2noc(-c3ccc(Cl)cc3)n2)c1`, the RP-LC retention time was determined as 1340 s.

Take `O=C(Nc1ccc2sccc2c1)c1coc2ccccc2c1=O`: the RP-LC retention time is 1070 s.

In turn, `CCc1nnc(-c2coc(S(=O)(=O)N3CCN(C4CCCCC4)CC3)c2)o1` displayed an RP-LC retention time of 628 s.

`Cc1cnc(C2CC2)n1CCNS(=O)(=O)c1ccccc1Cl`: the RP-LC retention time stood at 613 s.

In turn, `O=C(Cn1cnc2nc(N3CCCC(C(=O)NC4CC4)C3)sc2c1=O)NCc1ccc(F)cc1` (centres undefined) returned an RP-LC retention time of 669 s.

The compound `COc1ccc2[nH]cc(CCNC(=O)C3CCN(S(=O)(=O)c4ccc5c(ccn5C)c4)CC3)c2c1` had an RP-LC retention time of 851 s.

Compound `Cc1ccccc1NC(=O)Cn1c(=O)n(-c2ccc(F)cc2)c2ncccc21` came in with an RP-LC retention time of 814 s.

Compound `O=C(CN1CCN(C(=O)Nc2ccc(Br)cc2)CC1=O)NC1CCCCCC1` returned an RP-LC retention time of 786 s.

With `O=C(NCc1csc(C2CCN(C(=O)c3ccc(F)c(F)c3)CC2)n1)C1CC1`, the RP-LC retention time amounted to 705 s.

On to `Cc1ccccc1Cc1nc(C2CC(=O)N(c3ccc(F)c(Cl)c3)C2)no1` (centres undefined), for which the RP-LC retention time was determined as 1090 s.

In turn, `COc1ccc(-c2cc(C(=O)Nc3ccc(F)cc3)nn2C2CCS(=O)(=O)C2)cc1` (centres undefined) returned an RP-LC retention time of 930 s.

Compound `COc1ccc(OC)c(NC(=O)c2cnc(-c3ccc(F)cc3)nc2-c2ccncc2)c1` yielded an RP-LC retention time of 915 s.

As for `O=C(O)c1ccc(-c2ccc(N3CCCCCC3)nc2)cc1`, the RP-LC retention time stood at 623 s.

`CC(=O)c1ccc(S(=O)(=O)N(Cc2cccs2)Cc2cccn2C)cc1` showed an RP-LC retention time of 983 s.

`Cc1sc(NC(=O)C2CCN(S(=O)(=O)c3cccs3)CC2)c(C(N)=O)c1C` registered an RP-LC retention time of 769 s.

The compound `O=C(Nc1cnn(-c2ncc(N3CCCCC3)cn2)c1)c1ccccc1C(F)(F)F` came in with an RP-LC retention time of 865 s.

On to `C=CCNC(=O)C1CCN(C(=O)Nc2ccc(NC(=O)Nc3ccccc3F)cc2)CC1`, for which the RP-LC retention time worked out at 710 s.

Turning to `Cc1ccc(-c2c(C(=O)NCC3CCCO3)nc3ccccn23)cc1` (centres undefined), the RP-LC retention time stood at 730 s.

Compound `COc1cccc(NC(=O)Cn2c(N3CCCCC3)nc(C)cc2=O)c1` came in with an RP-LC retention time of 658 s.

In turn, `CS(=O)(=O)N1CCCc2ccc(NC(=O)c3ccc4nsnc4c3)cc21` came in with an RP-LC retention time of 786 s.

In the case of `O=c1cc(-c2cc3c(ccc4ccccc43)oc2=O)c2ccc(O)cc2o1`, the RP-LC retention time turned out to be 875 s.

In the case of `CCCNC(=O)C1CCN(c2cnc(N3CCCCCC3)nc2)CC1`, the RP-LC retention time stood at 666 s.

The compound `CCn1cc(-c2nc(CC(=O)Nc3ccccc3OC)cs2)c2cccnc21` showed an RP-LC retention time of 984 s.

In turn, `COc1ccc(CC(=O)N2C[C@@H]3C[C@H]2C[C@@H]3NC(=O)c2cccs2)cc1Cl` showed an RP-LC retention time of 764 s.

`N#Cc1ccc(CN2CCC3(CC2)CN(C2CCC2)CC3CO)cc1` (centres undefined) returned an RP-LC retention time of 606 s.

As for `CCc1nnc2ccc(S(=O)(=O)Nc3ccc(F)cc3)cn12`, the RP-LC retention time is 707 s.

`COc1cc(NC(=O)NC(C)C)c2ncccc2c1` showed an RP-LC retention time of 757 s.

Regarding `COC[C@@H]1CN(S(=O)(=O)c2ccccc2C)C[C@H]1c1ccccn1`, the RP-LC retention time amounted to 637 s.

Turning to `O=C(Nc1ccc(CC(=O)N2CCC(O)CC2)cc1)C1CCC1`, the RP-LC retention time is 588 s.

Compound `Cc1sc(NC(=O)Cc2ccccc2)nc1-c1ccc2c(c1)N(C)C(=O)CO2` came in with an RP-LC retention time of 926 s.

`COc1ccccc1NC(=O)c1cc2ccccc2cc1O` had an RP-LC retention time of 1060 s.

In turn, `CCOCCCNC(=O)c1cc2sccc2n1Cc1ccc(Cl)cc1` registered an RP-LC retention time of 1040 s.
